Laboratory results as given in ChEMBL document CHEMBL1201862, “PubChem BioAssay data set” (2004).
Blank lines part the entries; values can stand above or below the molecule they belong to. Calls of active or inactive are those of the source. Unless noted, the calls are words filed in the database; no cut-off is given here.

Assays:
Type in all cases: functional
[1] = target: Kappa-type opioid receptor (Homo sapiens, UniProt P41145); assay: SAR analysis of small molecule agonists of the kappa opioid receptor via a luminescent beta-arrestin assay - Set 3. [Related pubchem assays (depositor defined):AID1777, AID1785, AID1786, AID1966, AID2133, AID2136, AID2284, AID2500]
[2] = target: T1, Alkaline phosphatase, tissue-nonspecific isozyme (Homo sapiens, UniProt P05186); assay: TNAP enzyme inhibition by screening hits, dose response, selectivity assay for mouse IAP inhibitor project, biochemical, human TNAP, uHTS hits (AID 488906)
T1 sequence (P05186 whole entry): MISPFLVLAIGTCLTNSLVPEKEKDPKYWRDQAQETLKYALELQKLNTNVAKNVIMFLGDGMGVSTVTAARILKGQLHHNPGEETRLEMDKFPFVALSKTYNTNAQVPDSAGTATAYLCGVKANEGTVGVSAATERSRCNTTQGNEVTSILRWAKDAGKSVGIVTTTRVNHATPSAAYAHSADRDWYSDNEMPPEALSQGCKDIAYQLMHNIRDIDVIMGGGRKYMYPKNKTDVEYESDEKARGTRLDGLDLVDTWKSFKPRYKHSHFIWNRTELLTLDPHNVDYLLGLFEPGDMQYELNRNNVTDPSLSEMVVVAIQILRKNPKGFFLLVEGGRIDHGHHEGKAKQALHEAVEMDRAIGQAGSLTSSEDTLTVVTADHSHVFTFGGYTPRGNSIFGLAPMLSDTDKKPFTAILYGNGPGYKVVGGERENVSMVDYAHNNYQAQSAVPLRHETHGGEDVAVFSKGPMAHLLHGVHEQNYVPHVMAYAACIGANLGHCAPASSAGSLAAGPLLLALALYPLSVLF

[3] = target: Intestinal-type alkaline phosphatase (Homo sapiens, UniProt P09923); assay: inhibition of human intestinal alkaline phosphatase – biochemical, dose response (AID 488876)
[4] = target: Intestinal-type alkaline phosphatase (Mus musculus, UniProt P24822); assay: PubChem AID 488785
[5] = target: T2, Sphingosine 1-phosphate receptor 4 (Homo sapiens, UniProt O95977); assay: Fluorescence dose response cell-based high throughput screening assay for agonists of the Sphingosine 1-Phosphate Receptor 4 (S1P4). [Related pubchem assays: 1509 (Primary screen.), 1523 (Confirmation screen in triplicates.)]
T2 sequence (O95977 whole entry): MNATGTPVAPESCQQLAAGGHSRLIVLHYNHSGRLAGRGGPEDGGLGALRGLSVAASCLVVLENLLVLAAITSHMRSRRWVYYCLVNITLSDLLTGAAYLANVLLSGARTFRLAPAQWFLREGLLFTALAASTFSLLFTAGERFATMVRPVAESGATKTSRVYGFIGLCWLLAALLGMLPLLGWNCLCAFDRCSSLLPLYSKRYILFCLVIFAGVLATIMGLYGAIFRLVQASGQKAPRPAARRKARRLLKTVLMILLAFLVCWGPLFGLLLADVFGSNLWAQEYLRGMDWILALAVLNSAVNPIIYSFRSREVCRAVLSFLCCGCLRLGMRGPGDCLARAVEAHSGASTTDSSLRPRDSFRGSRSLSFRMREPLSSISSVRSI

[6] = target: Sphingosine 1-phosphate receptor 1 (Homo sapiens, UniProt P21453); assay: Fluorescence-based counterscreen assay for S1P4 agonists: Cell-based dose response high throughput screening assay to identify agonists of the Sphingosine 1-Phosphate Receptor 1 (S1P1). [Related pubchem assays (depositor defined):AID1509, AID1523, AID1801, AID463107, AID463118, AID463119, AID463122, AID463123, AID463129, AID463225, AID504400, AID504460]
[7] = target: T3, Metabotropic glutamate receptor 4 (Rattus norvegicus, UniProt P31423); assay: Modulation of the Metabotropic Glutamate Receptor mGluR4: Selectivity at mGluR4. [Related pubchem assays (depositor defined):AID2437, AID2807]
[8] = target: Metabotropic glutamate receptor 7 (Rattus norvegicus, UniProt P35400); assay: Modulation of the Metabotropic Glutamate Receptor mGluR4: Selectivity at mGluR7. [Related pubchem assays (depositor defined):AID2437, AID2807]
[9] = target: Metabotropic glutamate receptor 1 (Rattus norvegicus, UniProt P23385); assay: Modulation of the Metabotropic Glutamate Receptor mGluR4: Selectivity at mGluR1. [Related pubchem assays (depositor defined):AID2437, AID2807]
[10] = target: Metabotropic glutamate receptor 8 (Rattus norvegicus, UniProt P70579); assay: Modulation of the Metabotropic Glutamate Receptor mGluR4: Selectivity at mGluR8. [Related pubchem assays (depositor defined):AID2437, AID2807]
[11] = target: Metabotropic glutamate receptor 6 (Homo sapiens, UniProt O15303); assay: Modulation of the Metabotropic Glutamate Receptor mGluR4: Selectivity at mGluR6. [Related pubchem assays (depositor defined):AID2437, AID2807]
[12] = target: Metabotropic glutamate receptor 2 (Rattus norvegicus, UniProt P31421); assay: rat mGluR2 glutamate potency shift by compounds, selectivity assay for mGluR4 modulator project, cell-based (AID 2188)
[13] = target: Metabotropic glutamate receptor 5 (Rattus norvegicus, UniProt P31424); assay: Modulation of the Metabotropic Glutamate Receptor mGluR4: Selectivity at mGluR5. [Related pubchem assays (depositor defined):AID2437, AID2807]
[14] = target: T3, Metabotropic glutamate receptor 4; assay: Modulation of the Metabotropic Glutamate Receptor mGluR4: Rat PAM Potency. [Related pubchem assays (depositor defined):AID2437, AID2807]
[15] = target: Metabotropic glutamate receptor 3 (Rattus norvegicus, UniProt P31422); assay: Modulation of the Metabotropic Glutamate Receptor mGluR4: Selectivity at mGluR3. [Related pubchem assays (depositor defined):AID2437, AID2807]

T3 sequence (P31423 whole entry): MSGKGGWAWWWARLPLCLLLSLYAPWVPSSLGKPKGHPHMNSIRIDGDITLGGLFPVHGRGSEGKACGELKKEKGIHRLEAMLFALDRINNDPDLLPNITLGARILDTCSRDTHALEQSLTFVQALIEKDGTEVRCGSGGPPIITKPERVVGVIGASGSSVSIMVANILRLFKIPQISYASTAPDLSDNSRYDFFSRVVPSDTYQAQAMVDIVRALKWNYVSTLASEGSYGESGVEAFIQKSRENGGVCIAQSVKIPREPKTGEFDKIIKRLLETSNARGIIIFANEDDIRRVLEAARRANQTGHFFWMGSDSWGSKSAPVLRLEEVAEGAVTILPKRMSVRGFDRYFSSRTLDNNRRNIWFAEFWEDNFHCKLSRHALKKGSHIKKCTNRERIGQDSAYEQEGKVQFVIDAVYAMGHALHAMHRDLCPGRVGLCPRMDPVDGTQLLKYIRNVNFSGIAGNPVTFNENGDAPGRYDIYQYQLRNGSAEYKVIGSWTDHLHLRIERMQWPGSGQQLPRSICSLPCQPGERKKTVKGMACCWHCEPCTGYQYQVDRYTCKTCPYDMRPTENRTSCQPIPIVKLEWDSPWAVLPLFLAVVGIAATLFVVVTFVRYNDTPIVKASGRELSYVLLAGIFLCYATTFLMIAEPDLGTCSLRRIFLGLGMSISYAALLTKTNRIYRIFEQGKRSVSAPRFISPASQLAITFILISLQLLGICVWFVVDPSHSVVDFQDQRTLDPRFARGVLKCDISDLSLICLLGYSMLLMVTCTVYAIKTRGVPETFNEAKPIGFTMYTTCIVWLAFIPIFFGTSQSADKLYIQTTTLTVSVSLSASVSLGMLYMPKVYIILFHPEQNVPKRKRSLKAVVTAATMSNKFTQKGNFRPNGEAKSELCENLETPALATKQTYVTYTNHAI
Sequence of Intestinal-type alkaline phosphatase (Homo sapiens, UniProt P09923) (P09923 whole entry): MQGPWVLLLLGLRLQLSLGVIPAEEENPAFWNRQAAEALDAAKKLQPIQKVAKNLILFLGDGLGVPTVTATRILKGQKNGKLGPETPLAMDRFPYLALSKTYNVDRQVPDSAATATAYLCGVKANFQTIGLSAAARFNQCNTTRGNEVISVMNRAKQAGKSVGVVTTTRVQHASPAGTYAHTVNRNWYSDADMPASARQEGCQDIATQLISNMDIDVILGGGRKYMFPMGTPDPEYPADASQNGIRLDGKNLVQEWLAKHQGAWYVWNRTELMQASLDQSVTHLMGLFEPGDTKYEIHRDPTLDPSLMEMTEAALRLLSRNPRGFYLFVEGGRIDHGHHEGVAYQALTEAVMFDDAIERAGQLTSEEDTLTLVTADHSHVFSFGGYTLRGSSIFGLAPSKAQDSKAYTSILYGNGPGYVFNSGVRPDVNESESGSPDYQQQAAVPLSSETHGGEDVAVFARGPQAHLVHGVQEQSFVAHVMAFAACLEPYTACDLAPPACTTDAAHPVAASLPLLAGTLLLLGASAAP
Sequence of Kappa-type opioid receptor (P41145 whole entry): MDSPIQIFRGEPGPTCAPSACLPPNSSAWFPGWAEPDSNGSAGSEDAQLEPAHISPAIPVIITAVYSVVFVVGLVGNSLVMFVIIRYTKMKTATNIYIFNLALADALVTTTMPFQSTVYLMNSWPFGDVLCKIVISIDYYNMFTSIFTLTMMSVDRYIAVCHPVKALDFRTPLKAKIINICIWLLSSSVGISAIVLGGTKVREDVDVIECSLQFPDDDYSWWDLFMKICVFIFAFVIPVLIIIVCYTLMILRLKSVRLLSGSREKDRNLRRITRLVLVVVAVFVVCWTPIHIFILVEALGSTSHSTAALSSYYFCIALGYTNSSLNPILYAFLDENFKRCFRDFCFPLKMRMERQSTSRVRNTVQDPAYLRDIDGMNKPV
Sequence of Intestinal-type alkaline phosphatase (Mus musculus, UniProt P24822) (P24822 whole entry): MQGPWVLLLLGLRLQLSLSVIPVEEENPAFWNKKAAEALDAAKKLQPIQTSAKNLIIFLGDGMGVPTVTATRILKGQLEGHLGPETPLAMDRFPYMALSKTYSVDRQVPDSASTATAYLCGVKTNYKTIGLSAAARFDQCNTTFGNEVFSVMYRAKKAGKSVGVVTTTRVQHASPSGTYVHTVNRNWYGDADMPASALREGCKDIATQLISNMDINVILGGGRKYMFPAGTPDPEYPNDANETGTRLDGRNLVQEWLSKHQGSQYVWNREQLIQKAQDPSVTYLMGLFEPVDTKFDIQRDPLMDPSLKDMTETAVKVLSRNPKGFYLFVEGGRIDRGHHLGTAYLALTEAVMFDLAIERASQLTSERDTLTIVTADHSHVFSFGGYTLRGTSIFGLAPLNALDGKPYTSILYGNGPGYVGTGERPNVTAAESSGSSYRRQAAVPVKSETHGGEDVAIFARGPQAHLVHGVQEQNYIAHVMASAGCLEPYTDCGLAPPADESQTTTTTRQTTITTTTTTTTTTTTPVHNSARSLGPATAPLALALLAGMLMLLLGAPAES
Sequence of Metabotropic glutamate receptor 8 (P70579 whole entry): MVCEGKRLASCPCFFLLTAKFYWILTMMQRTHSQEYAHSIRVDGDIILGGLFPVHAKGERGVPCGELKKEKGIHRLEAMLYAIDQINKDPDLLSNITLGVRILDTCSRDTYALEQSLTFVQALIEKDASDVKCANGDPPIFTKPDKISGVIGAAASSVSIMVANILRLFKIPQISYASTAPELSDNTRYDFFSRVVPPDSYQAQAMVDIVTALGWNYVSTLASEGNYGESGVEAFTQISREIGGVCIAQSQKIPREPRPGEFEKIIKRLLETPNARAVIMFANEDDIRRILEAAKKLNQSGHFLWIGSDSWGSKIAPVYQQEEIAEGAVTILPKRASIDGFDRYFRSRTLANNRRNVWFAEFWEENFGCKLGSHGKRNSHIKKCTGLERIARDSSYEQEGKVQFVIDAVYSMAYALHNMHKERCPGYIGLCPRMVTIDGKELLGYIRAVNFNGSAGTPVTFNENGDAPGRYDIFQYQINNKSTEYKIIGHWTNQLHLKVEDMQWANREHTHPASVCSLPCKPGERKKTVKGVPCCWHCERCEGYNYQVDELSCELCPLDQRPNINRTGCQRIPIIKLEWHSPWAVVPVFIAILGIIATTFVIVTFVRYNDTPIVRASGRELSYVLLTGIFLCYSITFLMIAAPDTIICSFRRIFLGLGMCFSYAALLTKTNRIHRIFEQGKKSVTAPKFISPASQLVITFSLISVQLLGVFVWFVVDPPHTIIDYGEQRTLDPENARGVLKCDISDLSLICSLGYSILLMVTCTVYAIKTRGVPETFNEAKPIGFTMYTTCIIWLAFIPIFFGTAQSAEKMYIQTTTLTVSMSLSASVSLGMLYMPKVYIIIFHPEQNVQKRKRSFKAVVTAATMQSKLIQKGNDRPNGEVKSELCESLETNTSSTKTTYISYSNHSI
Sequence of Sphingosine 1-phosphate receptor 1 (P21453 whole entry): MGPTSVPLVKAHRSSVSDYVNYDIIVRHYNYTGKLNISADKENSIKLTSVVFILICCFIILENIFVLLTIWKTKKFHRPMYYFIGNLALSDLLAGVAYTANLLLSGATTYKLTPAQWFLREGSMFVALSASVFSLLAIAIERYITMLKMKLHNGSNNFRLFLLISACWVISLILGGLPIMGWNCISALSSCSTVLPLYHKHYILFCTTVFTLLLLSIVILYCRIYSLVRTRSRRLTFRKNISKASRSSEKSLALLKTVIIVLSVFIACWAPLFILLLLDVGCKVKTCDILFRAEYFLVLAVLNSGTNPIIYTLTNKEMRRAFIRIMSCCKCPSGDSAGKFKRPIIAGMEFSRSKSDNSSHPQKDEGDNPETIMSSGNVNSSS
Sequence of Metabotropic glutamate receptor 7 (P35400 whole entry): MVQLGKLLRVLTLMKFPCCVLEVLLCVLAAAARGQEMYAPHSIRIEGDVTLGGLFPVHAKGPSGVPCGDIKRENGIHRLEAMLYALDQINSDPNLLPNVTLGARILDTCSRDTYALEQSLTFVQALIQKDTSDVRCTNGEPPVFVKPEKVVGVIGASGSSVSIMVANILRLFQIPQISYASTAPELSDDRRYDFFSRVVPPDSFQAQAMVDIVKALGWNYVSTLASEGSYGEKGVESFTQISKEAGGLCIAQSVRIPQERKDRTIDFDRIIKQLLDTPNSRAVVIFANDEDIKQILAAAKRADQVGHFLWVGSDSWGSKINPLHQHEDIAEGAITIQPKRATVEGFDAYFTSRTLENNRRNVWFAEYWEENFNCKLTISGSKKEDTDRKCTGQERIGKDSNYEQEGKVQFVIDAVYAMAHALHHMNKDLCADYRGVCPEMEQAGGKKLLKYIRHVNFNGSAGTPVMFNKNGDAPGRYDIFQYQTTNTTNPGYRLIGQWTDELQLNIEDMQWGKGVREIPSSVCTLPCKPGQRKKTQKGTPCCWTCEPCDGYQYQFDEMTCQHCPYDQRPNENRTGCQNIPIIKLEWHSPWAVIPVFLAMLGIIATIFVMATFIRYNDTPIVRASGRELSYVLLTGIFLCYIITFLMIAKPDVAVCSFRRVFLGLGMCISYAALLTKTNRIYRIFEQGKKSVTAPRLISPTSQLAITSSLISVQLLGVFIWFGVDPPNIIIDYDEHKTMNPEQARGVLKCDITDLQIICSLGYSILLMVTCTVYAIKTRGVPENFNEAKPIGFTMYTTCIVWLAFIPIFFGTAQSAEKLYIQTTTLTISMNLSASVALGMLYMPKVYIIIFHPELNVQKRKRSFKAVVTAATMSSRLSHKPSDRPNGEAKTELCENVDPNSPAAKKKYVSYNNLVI

EC50 [1]: 13100 nM (inactive)
Compound: Cc1ccc2[nH]c(=O)c(CN(CCC(C)C)C(=O)c3ccccn3)cc2c1

IC50 [2]: 17100 nM (active)
IC50 [3]: 9420 nM (active)
IC50 [4]: 2340 nM (active)
Compound: NS(=O)(=O)c1cccc(NC(=O)CSc2nnc(-c3ccncc3)n2C2CC2)c1

EC50 [5]: > 49800 nM (not active)
EC50 [6]: > 49800 nM (inactive)
Compound: Cc1cc(C)nc(N/N=C/c2ccc(N3CCOCC3)cc2)n1

EC50 [7]: 597 nM (active)
Activity EC50 [8]: 163000 nM
EC50 [9]: 1170 nM (inactive)
EC50 [10]: 9140 nM (inactive)
EC50 [11]: 1250 nM (active)
EC50 [12]: 1470 nM (inactive)
EC50 [13]: 1240 nM (inactive)
EC50 [14]: 295 nM (active)
EC50 [15]: 811 nM (inactive)
Compound: O=C(Nc1cccc(Cl)c1)c1ccccn1
